Our source for the IC50 values is US20260022142A1, “MACROCYCLIC IMMUNOMODULATORS” (Bristol-Myers Squibb Company, priority 2022, published 2026).

Each structure is given as a SMILES string. Numbered stars: 1 amine (or outer) side, 2 acyl side, 3 side chain; on linkers, the order of the positions; unused ones are H or OH. Bridge positions count the residues as written; N and C are the ends. Square brackets hold non-standard residues; d marks the D form. Peptide text beside a SMILES is read from it. * marks the point of attachment. ξ: configuration not given here. Bip = N[C@@H](Cc1ccc(-c2ccccc2)cc1)C(=O)O; Phe(3-Me) = Cc1cccc(C[C@H](N)C(=O)O)c1; X19 = O=C([C@@H]1CC(O)CN1[*:1])[*:2]; hArg = N=C(N)NCCCC[C@H](N)C(=O)O; Cha = N[C@@H](CC1CCCCC1)C(=O)O; Thr(3ξ) = CC(O)[C@H](N)C(=O)O; Carboxymethyl = O=C(O)C*; Orn = NCCC[C@H](N)C(=O)O; Aun = NCCCCCCCCCCC(=O)O; Dab = NCC[C@H](N)C(=O)O; Dap = NC[C@H](N)C(=O)O; AEEA = NCCOCCOCC(=O)O

T1 sequence (Q15116 25-288): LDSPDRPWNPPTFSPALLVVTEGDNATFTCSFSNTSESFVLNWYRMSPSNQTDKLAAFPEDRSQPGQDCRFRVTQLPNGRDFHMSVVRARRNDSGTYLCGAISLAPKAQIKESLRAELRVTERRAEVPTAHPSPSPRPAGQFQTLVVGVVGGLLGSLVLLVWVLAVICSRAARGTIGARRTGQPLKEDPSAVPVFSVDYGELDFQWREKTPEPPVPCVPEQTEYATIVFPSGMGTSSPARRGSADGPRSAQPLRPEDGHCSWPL

The assay concerns the target T1, PD-1/PD-L1 interaction (PE-labeled human PD-L1-Ig binding to Jurkat cell line over-expressing human PD-1) (Homo sapiens, UniProt Q15116).
T1 construct: expressed in transfected cells; host or cells: Jurkat
Description: Jurkat-PD-1 Cell Binding High-Content Screening Assay (CBA). In kind it is cell-based. Particulars: Jurkat cell line over-expressing human PD-1; PE-labeled PD-L1-Ig 20 nM final; read-out: Jurkat hPD1-PDL1 IC50. An outline of the steps:
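Binding of fluorescent PD-L1-Ig (phycoerythrin on Ig tag, 20 nM final, 1 h) measured by high-content imaging of fixed, Hoechst-counterstained Jurkat-hPD-1 cells. Compound added 2 h at 37° C beforehand, in DMEM with 10% fetal calf serum.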
On to `Cc1cccc(C[C@@H]2NC(=O)[C@H](CC(=O)O)NC(=O)[C@H](Cc3ccc(OCC(=O)O)cc3)NC(=O)[C@H](CCCCNC(=N)N)NC(=O)CSC[C@@H](C(=O)N[C@@H](CCN)C(=O)NCCCCCCCCCCC(=O)O)NC(=O)[C@H](CCCCN)NC(=O)[C@H](C(C)C)NC(=O)[C@H](CC3CCCCC3)NC(=O)[C@H](CCN)NC(=O)[C@@H](CC(C)C)NC(=O)[C@H](CCCN)NC(=O)[C@H](C(C)C)NC(=O)[C@H](Cc3ccc(-c4ccccc4)cc3)NC(=O)[C@H](C(C)C)NC2=O)c1` [Compound 3260] ({CH2CO}-[hArg]Y(Carboxymethyl)D[Phe(3-Me)]V[Bip]V[Orn][dL][Dab][Cha]VKC[Dab][Aun]-OH; thioether N-14), for which the IC50 stood at 12.2 nM.

`CC(C)C[C@H]1NC(=O)[C@H](CCCN)NC(=O)[C@H](C(C)C)NC(=O)[C@H](Cc2ccc(-c3ccccc3)cc2)NC(=O)[C@H](C(C)C)NC(=O)[C@H](Cc2c[nH]c3ccccc23)NC(=O)[C@H](CC(=O)O)NC(=O)[C@H](Cc2ccc(OCC(=O)O)cc2)NC(=O)[C@H](CCCCNC(=N)N)NC(=O)CSC[C@@H](C(=O)NCCOCCOCC(=O)NCCCCCCCCCCC(=O)O)NC(=O)[C@H](CCCN)NC(=O)[C@H](C(C)C)NC(=O)[C@H](CC2CCCCC2)NC(=O)[C@H](CCN)NC1=O` [Compound 3262] ({CH2CO}-[hArg]Y(Carboxymethyl)DWV[Bip]V[Orn][dL][Dab][Cha]V[Orn]C[AEEA][Aun]-OH; thioether N-14): the half-maximal inhibitory concentration (IC50) amounted to 6.7 nM.

As to `CC(C)C[C@H]1NC(=O)[C@H](CCCN)NC(=O)[C@H](C(C)C)NC(=O)[C@H](Cc2ccc(-c3ccccc3)cc2)NC(=O)[C@H](C(C)C)NC(=O)[C@H](Cc2c[nH]c3ccccc23)NC(=O)[C@H](CC(=O)O)NC(=O)[C@H](Cc2c[nH]cn2)NC(=O)[C@H](CCCCNC(=N)N)NC(=O)CSC[C@@H](C(=O)N[C@@H](CCN)C(=O)NCCCCCCCCCCC(=O)O)NC(=O)[C@H](CCCN)NC(=O)[C@H](C(C)C)NC(=O)[C@H](CC2CCCCC2)NC(=O)[C@H](CCN)NC1=O` [Compound 3263] ({CH2CO}-[hArg]HDWV[Bip]V[Orn][dL][Dab][Cha]V[Orn]C[Dab][Aun]-OH; thioether N-14), the IC50 is 55.3 nM.

Turning to `Cc1cccc(C[C@@H]2NC(=O)[C@H](CC(=O)O)NC(=O)[C@H](Cc3c[nH]cn3)NC(=O)[C@H](CCCCNC(=N)N)NC(=O)CSC[C@@H](C(=O)NCCOCCOCC(=O)NCCCCCCCCCCC(=O)O)NC(=O)[C@H](CCCN)NC(=O)[C@H](C(C)C)NC(=O)[C@H](CC3CCCCC3)NC(=O)[C@H](CCN)NC(=O)[C@@H](CC(C)C)NC(=O)[C@H](CCCN)NC(=O)[C@H](C(C)C)NC(=O)[C@H](Cc3ccc(-c4ccccc4)cc3)NC(=O)[C@H](C(C)C)NC2=O)c1` [Compound 3264] ({CH2CO}-[hArg]HD[Phe(3-Me)]V[Bip]V[Orn][dL][Dab][Cha]V[Orn]C[AEEA][Aun]-OH; thioether N-14), the IC50 came out at 12.6 nM.

As to `CC(C)C[C@H]1NC(=O)[C@H](CCN)NC(=O)[C@H](C(C)C)NC(=O)[C@H](Cc2ccc(-c3ccccc3)cc2)NC(=O)[C@H](C(C)C)NC(=O)[C@H](Cc2c[nH]c3ccccc23)NC(=O)[C@H](CC(=O)O)NC(=O)[C@H](Cc2ccc(OCC(=O)O)cc2)NC(=O)[C@H](CCCCNC(=N)N)NC(=O)CSC[C@@H](C(=O)NCCOCCOCC(=O)NCCCCCCCCCCC(=O)O)NC(=O)[C@H](CCCN)NC(=O)[C@H](C(C)C)NC(=O)[C@H](CC2CCCCC2)NC(=O)[C@H](CCN)NC1=O` [Compound 3265] ({CH2CO}-[hArg]Y(Carboxymethyl)DWV[Bip]V[Dab][dL][Dab][Cha]V[Orn]C[AEEA][Aun]-OH; thioether N-14), the IC50 worked out at 7.2 nM.

Take `CC(C)C[C@H]1NC(=O)[C@H](CN)NC(=O)[C@H](C(C)C)NC(=O)[C@H](Cc2ccc(-c3ccccc3)cc2)NC(=O)[C@H](C(C)C)NC(=O)[C@H](Cc2c[nH]c3ccccc23)NC(=O)[C@H](CC(=O)O)NC(=O)[C@H](Cc2ccc(OCC(=O)O)cc2)NC(=O)[C@H](CCCCNC(=N)N)NC(=O)CSC[C@@H](C(=O)NCCOCCOCC(=O)NCCCCCCCCCCC(=O)O)NC(=O)[C@H](CCCCN)NC(=O)[C@H](C(C)C)NC(=O)[C@H](CC2CCCCC2)NC(=O)[C@H](CCN)NC1=O` [Compound 3266] ({CH2CO}-[hArg]Y(Carboxymethyl)DWV[Bip]V[Dap][dL][Dab][Cha]VKC[AEEA][Aun]-OH; thioether N-14): the IC50 was determined as 9.2 nM.

As for `CC(C)C[C@H]1NC(=O)[C@H](CCCN)NC(=O)[C@H](C(C)C)NC(=O)[C@H](Cc2ccc(-c3ccccc3)cc2)NC(=O)[C@H](C(C)C)NC(=O)[C@H](Cc2c[nH]c3ccccc23)NC(=O)[C@H](CC(=O)O)NC(=O)[C@H](Cc2ccc(OCC(=O)O)cc2)NC(=O)[C@H](CCCCNC(=N)N)NC(=O)CSC[C@@H](C(=O)N[C@@H](CCN)C(=O)NCCCCCCCCCCC(=O)O)NC(=O)[C@H](C(C)O)NC(=O)[C@H](C(C)C)NC(=O)[C@H](CC2CCCCC2)NC(=O)[C@H](CCN)NC1=O` (stereo partly drawn) [Compound 3267] ({CH2CO}-[hArg]Y(Carboxymethyl)DWV[Bip]V[Orn][dL][Dab][Cha]V[Thr(3ξ)]C[Dab][Aun]-OH; thioether N-14), the IC50 came out at 16.3 nM.

Regarding `Cc1cccc(C[C@@H]2NC(=O)[C@H](CC(=O)O)NC(=O)[C@H](Cc3ccc(OCC(=O)O)cc3)NC(=O)[C@H](CCCCNC(=N)N)NC(=O)CSC[C@@H](C(=O)N[C@@H](CCCN)C(=O)N[C@@H](CO)C(=O)NCCCCCCCCCCC(=O)O)NC(=O)[C@H](C(C)O)NC(=O)[C@H](C(C)C)NC(=O)[C@H](CC3CCCCC3)NC(=O)[C@H](CCN)NC(=O)[C@@H](CC(C)C)NC(=O)[C@H](CCCN)NC(=O)[C@H](C(C)C)NC(=O)[C@H](Cc3ccc(-c4ccccc4)cc3)NC(=O)[C@H](C(C)C)NC2=O)c1` (stereo partly drawn) [Compound 3268] ({CH2CO}-[hArg]Y(Carboxymethyl)D[Phe(3-Me)]V[Bip]V[Orn][dL][Dab][Cha]V[Thr(3ξ)]C[Orn]S[Aun]-OH; thioether N-14), the IC50 amounted to 8 nM.

`CC(C)C[C@H]1NC(=O)[C@H](CCCN)NC(=O)[C@H](C(C)C)NC(=O)[C@H](Cc2ccc(-c3ccccc3)cc2)NC(=O)[C@H](C(C)C)NC(=O)[C@H](Cc2c[nH]c3ccccc23)NC(=O)[C@H](CC(=O)O)NC(=O)[C@H](Cc2c[nH]cn2)NC(=O)[C@H](CCCCNC(=N)N)NC(=O)CSC[C@@H](C(=O)N[C@@H](CCN)C(=O)NCCCCCCCCCCC(=O)O)NC(=O)[C@H](CCN)NC(=O)[C@H](C(C)C)NC(=O)[C@H](CC2CCCCC2)NC(=O)[C@H](CCN)NC1=O` [Compound 3269] ({CH2CO}-[hArg]HDWV[Bip]V[Orn][dL][Dab][Cha]V[Dab]C[Dab][Aun]-OH; thioether N-14): the IC50 was determined as 65.5 nM.

On to `CC(C)C[C@H]1NC(=O)[C@H](CCCN)NC(=O)[C@H](C(C)C)NC(=O)[C@H](Cc2ccc(-c3ccccc3)cc2)NC(=O)[C@H](C(C)C)NC(=O)[C@H](Cc2c[nH]c3ccccc23)NC(=O)[C@H](CC(=O)O)NC(=O)[C@H](Cc2c[nH]cn2)NC(=O)[C@H](CCCCNC(=N)N)NC(=O)CSC[C@@H](C(=O)N[C@@H](CCN)C(=O)NCCCCCCCCCCC(=O)O)NC(=O)[C@H](CCCCN)NC(=O)[C@H](C(C)C)NC(=O)[C@H](CC2CCCCC2)NC(=O)[C@H](CCN)NC1=O` [Compound 3270] ({CH2CO}-[hArg]HDWV[Bip]V[Orn][dL][Dab][Cha]VKC[Dab][Aun]-OH; thioether N-14), for which the IC50 came out at 32 nM.

As for `CC(C)C[C@H]1NC(=O)[C@H](CCCN)NC(=O)[C@H](C(C)C)NC(=O)[C@H](Cc2ccc(-c3ccccc3)cc2)NC(=O)[C@H](C(C)C)NC(=O)[C@H](Cc2c[nH]c3ccccc23)NC(=O)[C@H](CC(=O)O)NC(=O)[C@H](Cc2c[nH]cn2)NC(=O)[C@H](CCCCNC(=N)N)NC(=O)CSC[C@@H](C(=O)N[C@@H](CCN)C(=O)NCCCCCCCCCCC(=O)O)NC(=O)[C@H](CO)NC(=O)[C@H](C(C)C)NC(=O)[C@H](CC2CCCCC2)NC(=O)[C@H](CCN)NC1=O` [Compound 3271] ({CH2CO}-[hArg]HDWV[Bip]V[Orn][dL][Dab][Cha]VSC[Dab][Aun]-OH; thioether N-14), the concentration for half-maximal inhibition (IC50) was 31.6 nM.

In the case of `CC(C)C[C@H]1NC(=O)[C@H](CCCN)NC(=O)[C@H](C(C)C)NC(=O)[C@H](Cc2ccc(-c3ccccc3)cc2)NC(=O)[C@H](C(C)C)NC(=O)[C@H](Cc2c[nH]c3ccccc23)NC(=O)[C@H](CC(=O)O)NC(=O)[C@H](Cc2c[nH]cn2)NC(=O)[C@H](CCCNC(=N)N)NC(=O)CSC[C@@H](C(=O)N[C@@H](CCN)C(=O)NCCCCCCCCCCC(=O)O)NC(=O)[C@H](CO)NC(=O)[C@H](C(C)C)NC(=O)[C@H](CC2CCCCC2)NC(=O)[C@H](CCN)NC1=O` [Compound 3272] ({CH2CO}-RHDWV[Bip]V[Orn][dL][Dab][Cha]VSC[Dab][Aun]-OH; thioether N-14), the IC50 is 29.8 nM.

In the case of `CC(C)C[C@H]1NC(=O)[C@H](CCCN)NC(=O)[C@H](C(C)C)NC(=O)[C@H](Cc2ccc(-c3ccccc3)cc2)NC(=O)[C@H](C(C)C)NC(=O)[C@H](Cc2c[nH]c3ccccc23)NC(=O)[C@H](CC(=O)O)NC(=O)[C@H](Cc2c[nH]cn2)NC(=O)[C@H](CCCCNC(=N)N)NC(=O)CSC[C@@H](C(=O)N[C@@H](CCN)C(=O)NCCCCCCCCCCC(=O)O)NC(=O)[C@H](CCC(N)=O)NC(=O)[C@H](C(C)C)NC(=O)[C@H](CC2CCCCC2)NC(=O)[C@H](CCN)NC1=O` [Compound 3273] ({CH2CO}-[hArg]HDWV[Bip]V[Orn][dL][Dab][Cha]VQC[Dab][Aun]-OH; thioether N-14), the IC50 worked out at 27.5 nM.

`CC(C)C[C@H]1NC(=O)[C@H](CCCN)NC(=O)[C@H](C(C)C)NC(=O)[C@H](Cc2ccc(-c3ccccc3)cc2)NC(=O)[C@H](C(C)C)NC(=O)[C@H](Cc2c[nH]c3ccccc23)NC(=O)[C@H](CC(=O)O)NC(=O)[C@H](Cc2c[nH]cn2)NC(=O)[C@H](CCCCNC(=N)N)NC(=O)CSC[C@@H](C(=O)N[C@@H](CCN)C(=O)NCCCCCCCCCCC(=O)O)NC(=O)[C@@H]2CC(O)CN2C(=O)[C@H](C(C)C)NC(=O)[C@H](CC2CCCCC2)NC(=O)[C@H](CCN)NC1=O` (stereo partly drawn) [Compound 3274] ({CH2CO}-[hArg]HDWV[Bip]V[Orn][dL][Dab][Cha]V[X19]C[Dab][Aun]-OH; thioether N-14): the concentration for half-maximal inhibition (IC50) is 411 nM.
